Reference: patent US20230054318A1, “PERSONALIZED TUMOR VACCINE AND USE THEREOF FOR CANCER IMMUNOTHERAPY” (priority 2019, published 2023)

Test: Human Equivalent Dose (HED) calculation based on body surface area
Details: for Animal NOAEL: mouse (~20 g)
Excerpt: Provided herein are methods for calculating HED of the MBTA components based on body surface area.
See details from: Nair A B, Jacob S. A simple practice guide for dose conversion between animals and human. J Basic Clin Pharma 2016; 7:27-31
A formula to calculate HED is shown as follows:
HED(mg/kg)=Animal dose(mg/kg)Animal Km/Human Km

Row | Molecule | NOAEL (mouse) | Animal NOAEL | HED/Safety Factor (10) | Maximum Recommended Starting Dose (MRSD, assuming 60 kg adult) | HED (Mouse Km=3, Human Km=37)
1 | CCOCc1nc2c(N)nc3ccccc3c2n1CC(C)(C)O [R-848, Resiquimod, reference compound] | 1.2 mg/kg | – | – | – | –
2 | Lipoteichoic acid [LTA, reference compound] | – | 1.2 mg/kg | – | – | –
3 | Mannan | – | 47.5 mg/kg | 0.3851 mg/kg | 23.11 mg/day | 3.851 mg/kg
